ChEMBL document CHEMBL3826918, “Recent developments of C-4 substituted coumarin derivatives as anticancer agents” (Eur J Med Chem, 2016)
Blank lines part the entries; values can stand above or below the compound they belong to.

Legend:
Aromatase [1] = molecular target: T1, Aromatase (Homo sapiens, UniProt P11511); assay type: cell-based, MCF7
T1 sequence (P11511 whole entry): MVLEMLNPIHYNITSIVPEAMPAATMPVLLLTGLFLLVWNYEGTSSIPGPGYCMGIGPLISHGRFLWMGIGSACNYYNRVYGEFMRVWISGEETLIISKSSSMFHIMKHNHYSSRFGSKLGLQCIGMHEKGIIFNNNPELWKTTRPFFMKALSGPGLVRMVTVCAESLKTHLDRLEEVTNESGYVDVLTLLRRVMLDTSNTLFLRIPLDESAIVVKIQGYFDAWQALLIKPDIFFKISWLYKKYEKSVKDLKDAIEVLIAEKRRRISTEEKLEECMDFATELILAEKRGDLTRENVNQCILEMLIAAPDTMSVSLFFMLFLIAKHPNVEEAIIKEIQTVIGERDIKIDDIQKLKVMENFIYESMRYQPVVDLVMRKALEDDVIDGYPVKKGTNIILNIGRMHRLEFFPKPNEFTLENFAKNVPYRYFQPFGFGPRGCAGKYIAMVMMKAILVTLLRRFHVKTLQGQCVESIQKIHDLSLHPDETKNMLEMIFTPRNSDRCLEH
Description: Inhibition of aromatase in human MCF7 cells using [1beta-3H]androstenedione as substrate measured after 1 hr by liquid scintillation counting method

Steryl-sulfatase [2] = molecular target: T2, Steryl-sulfatase (Homo sapiens, UniProt P08842); experiment: Inhibition of placental sulphatase (unknown origin)
T2 sequence (P08842 whole entry): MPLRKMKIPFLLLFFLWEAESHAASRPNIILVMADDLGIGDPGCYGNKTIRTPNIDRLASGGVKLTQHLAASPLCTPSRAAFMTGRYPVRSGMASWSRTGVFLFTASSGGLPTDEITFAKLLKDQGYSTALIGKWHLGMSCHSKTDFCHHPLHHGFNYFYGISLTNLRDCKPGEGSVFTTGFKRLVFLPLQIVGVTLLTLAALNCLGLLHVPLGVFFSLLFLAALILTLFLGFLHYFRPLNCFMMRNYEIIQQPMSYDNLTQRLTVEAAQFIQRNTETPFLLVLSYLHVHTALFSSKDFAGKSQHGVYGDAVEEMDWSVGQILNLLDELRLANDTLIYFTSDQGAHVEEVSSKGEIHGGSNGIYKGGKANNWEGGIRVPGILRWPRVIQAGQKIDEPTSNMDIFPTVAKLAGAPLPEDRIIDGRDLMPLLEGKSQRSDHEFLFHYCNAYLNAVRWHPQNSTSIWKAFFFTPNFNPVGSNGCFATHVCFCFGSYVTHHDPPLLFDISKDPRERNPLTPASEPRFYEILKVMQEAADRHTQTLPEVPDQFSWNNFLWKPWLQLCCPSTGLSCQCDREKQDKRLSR

Steryl-sulfatase [3] = molecular target: T2, Steryl-sulfatase; experiment: Inhibition of sulphatase in human MCF7 cells assessed as inhibition of E1-STS activity; assay type: cell-based
Casein kinase II = Casein kinase II (Homo sapiens, UniProt P19784+P67870+P68400); experiment: Inhibition of recombinant human N-terminal 6His-tagged CK2 expressed in baculovirus infected Sf21 cells in presence of ATP by radiometric assay
A549 = experiment: Antiproliferative activity against human A549 cells over-expressing CK2 assessed as growth inhibition; assay type: functional, cell-based
Aromatase [4] = molecular target: T1, Aromatase
Description: Inhibition of aromatase (unknown origin) preincubated for 10 mins in presence of NADPH generating system followed by addition of dibenzylfluorescein as substrate measured after 30 mins by fluorescence quenching assay

[5] = Octanol-water partition coefficient, log P of the compound; assay type: physicochemical
MCF7 [6] = experiment: Cytotoxicity against human MCF7 cells assessed as reduction in cell viability by MTT assay; assay type: functional, cell-based
[7] = Cytotoxicity against human hTERT-HME1 cells assessed as reduction in cell viability by MTT assay; assay type: functional, cell-based
MDA-MB-231 [8] = experiment: Cytotoxicity against human MDA-MB-231 cells assessed as reduction in cell viability by MTT assay; assay type: functional, cell-based
A-375 = experiment: Cytotoxicity against human A375 cells assessed as reduction in cell viability measured after 48 hrs by MTT assay; assay type: functional, cell-based; details: A-375, 48 h
MRC5 = experiment: Cytotoxicity against human MRC5 cells assessed as reduction in cell viability measured after 48 hrs by MTT assay; assay type: functional, cell-based; details: MRC5, 48 h
[9] = Antiproliferative activity against human PC3 cells; assay type: functional, cell-based; details: PC-3
MDA-MB-231 [10] = experiment: cells; details: Homo sapiens
Description: Antiproliferative activity against human MDA-MB-231 cells

MCF7 [11] = experiment: cells; details: Homo sapiens
Description: Antiproliferative activity against human MCF7 cells

[12] = Inhibition of TNF-alpha induced NF-kappaB transcriptional activity in HEK293 cells expressing NF-kappaB-Luc measured after 48 hrs by luciferase assay; assay type: cell-based; details: Homo sapiens, HEK293, 48 h

Casein kinase II, sequence (P67870 whole entry): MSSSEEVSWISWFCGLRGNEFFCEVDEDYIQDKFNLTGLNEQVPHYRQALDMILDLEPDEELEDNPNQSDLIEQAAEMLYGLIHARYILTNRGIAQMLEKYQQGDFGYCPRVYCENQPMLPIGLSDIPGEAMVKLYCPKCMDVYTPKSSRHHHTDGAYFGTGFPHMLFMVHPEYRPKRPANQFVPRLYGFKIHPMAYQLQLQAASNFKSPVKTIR
Casein kinase II, sequence (P68400 whole entry): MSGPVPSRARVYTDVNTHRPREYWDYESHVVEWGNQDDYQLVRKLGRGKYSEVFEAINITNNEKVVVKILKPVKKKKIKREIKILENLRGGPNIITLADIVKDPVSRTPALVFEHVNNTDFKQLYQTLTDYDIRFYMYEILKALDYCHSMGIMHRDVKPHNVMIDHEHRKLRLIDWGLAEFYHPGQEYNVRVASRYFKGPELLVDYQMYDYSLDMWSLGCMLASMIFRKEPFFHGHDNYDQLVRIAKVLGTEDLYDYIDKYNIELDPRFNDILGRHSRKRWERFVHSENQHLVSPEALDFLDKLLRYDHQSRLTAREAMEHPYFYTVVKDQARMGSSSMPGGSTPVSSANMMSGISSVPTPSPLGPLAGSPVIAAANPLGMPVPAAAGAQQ
Casein kinase II, sequence (P19784 whole entry): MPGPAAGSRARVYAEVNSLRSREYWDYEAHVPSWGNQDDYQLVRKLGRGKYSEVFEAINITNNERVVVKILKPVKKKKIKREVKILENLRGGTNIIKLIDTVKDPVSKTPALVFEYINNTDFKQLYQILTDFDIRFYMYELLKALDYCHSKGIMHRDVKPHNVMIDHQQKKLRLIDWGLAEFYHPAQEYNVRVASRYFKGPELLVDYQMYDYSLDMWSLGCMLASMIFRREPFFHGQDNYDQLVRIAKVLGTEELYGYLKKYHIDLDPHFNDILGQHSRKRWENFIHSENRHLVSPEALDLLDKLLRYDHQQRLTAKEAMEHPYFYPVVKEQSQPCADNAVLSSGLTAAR

SMILES: Cc1cc(=O)oc2ccc(OS(N)(=O)=O)cc12
- IC50 (Steryl-sulfatase [3]): 0.38 µM

SMILES: O=c1cc(C(F)(F)F)c2ccc(O)c(Cl)c2o1
- IC50 (Casein kinase II): 0.4 µM
- IC50 (A549): 20.2 µM

SMILES: O=C1C=C(SCc2cc(=O)oc3cc(O)ccc23)C(=O)c2ccccc21
- IC50 (MCF7 [6]): 11.2 µM
- IC50 [7]: 18.1 µM
- IC50 (MDA-MB-231 [8]): 9.5 µM

SMILES: O=c1cc(-c2ccccc2)c2ccc(O)c(O)c2o1
- IC50 (A-375): 39 µM
- IC50 (MRC5): 47 µM

SMILES: CC/C(=C(\c1ccccc1)c1ccc(OCCN(C)C)cc1)c1ccccc1 [TAMOXIFEN]
- IC50 [9]: > 40 µM
- IC50 (MDA-MB-231 [10]): 17.9 µM
- IC50 (MCF7 [11]): 13.7 µM

SMILES: COc1cc(C2CC(=O)Oc3cc4c(cc32)OCO4)cc(OC)c1O (centres undefined)
- logP [5]: 2.17

SMILES: COc1cc(C2CC(=O)Oc3cc4c(c(OC)c32)OCO4)cc(OC)c1OC (centres undefined)
- IC50 [12]: 0.11 µM

SMILES: COc1ccc2c(CSC3=CC(=O)c4ccccc4C3=O)cc(=O)oc2c1
- IC50 (MCF7 [6]): 11.2 µM
- IC50 [7]: 18.1 µM
- IC50 (MDA-MB-231 [8]): 9.5 µM

SMILES: COc1cc(C2CC(=O)Oc3cc4c(cc32)OCO4)cc(OC)c1OC (centres undefined)
- IC50 [12]: 0.11 µM

Continued, in another order:

- IC50 (Aromatase [1]): 0.08 µM
SMILES: COc1ccc2c(Cc3ccccc3)c(-c3ccc(Cl)cc3)c(=O)oc2c1

- IC50 (Steryl-sulfatase [2]): 0.001 µM
SMILES: NS(=O)(=O)Oc1ccc2c(c1)OC(=O)C1CCCCCCCCCCC21 (centres undefined)

- IC50 (Aromatase [4]): 12.1 µM
- logP [5]: 2.17
SMILES: COc1cc(C2CC(=O)Oc3cc4c(cc32)OCO4)cc(OC)c1OC(C)=O (centres undefined)

- IC50 (MDA-MB-231 [10]): 18.5 µM
- IC50 (MCF7 [11]): 15.4 µM
SMILES: O=C(c1ccc(OCCN2CCCCC2)cc1)c1c(-c2ccc(O)cc2)sc2cc(O)ccc12 [RALOXIFENE]
- IC50 [9]: > 40 µM
